# Laboratory results from patent US12435026B2, “Solabegron zwitterion and uses thereof” (B3AR THERAPEUTICS, INC., priority 2015, dated 2025).
# How the values were obtained:
# [1] = Solubility among forms of solabegron; type: physicochemical
# Source text: After extensive effort, applicants have newly discovered two crystalline forms of solabegron zwitterion. One form, form I, is an anhydrous crystalline form and is characterized by an x-ray powder diffraction pattern having peaks expressed in degrees 2θ (±2) at 6.2, 12.5; 18.8; 20.6; and 25.2. A second form, form II is a hydrate of isopropanol solvate and is characterized by an x-ray powder diffraction pattern having peaks expressed in degrees 2θ (±2) at 17.6, 18.7, 19.6, 20.1, 20.5, 23.7, and 25.8. (See EXAMPLE 3 and FIGS. 7, 12 and 14). […] After isolation the solabegron crystals can be dissolved and then crystallized to the solabegron HCL salt form, which is currently being investigated clinically. Of equal importance, the pharmaceutical compositions of solabegron zwitterion disclosed herein could be used as the active ingredient clinically, replacing the need for the HCl salt form of solabegron.
# [2] = Relative stability of solabegron zwitterion Forms I and II via slurry conditioning in IPA/H2O; type: physicochemical; details: for relative stability of crystal forms: slurry conditioning in IPA/H2O with different ratio (FIG. 10)
# Experimental: The relative stability of solabegron zwitterion Forms I and II was evaluated via slurry conditioning of either solabegron zwitterion Form I or a mixture of solabegron zwitterion Forms I and II in IPA/H2O with different ratio, for a) confirmation of relative stability of the two solabegron zwitterion forms, and b) rational process design and control. The table in FIG. 10 lists the testing conditions and results.
# [3] = system: women with moderate to severe OAB; details: Ohlstein et al., Eur. Urol. 2012; cited from earlier work
compound,measurement,setting,value
O=C(O)c1cccc(-c2cccc(NCCNC[C@H](O)c3cccc(Cl)c3)c2)c1 [Solabegron zwitterion],solubility relative to other forms of solabegron,[1],least soluble form of solabegron
O=C(O)c1cccc(-c2cccc(NCCNC[C@H](O)c3cccc(Cl)c3)c2)c1 [solabegron zwitterion Form II],relative stability of crystal forms,[2],more stable than solabegron zwitterion Form I
same,relative stability of crystal forms,[2]; listed as form II solabegron zwitterion,more stable than the form I solabegron zwitterion
O=C(O)c1cccc(-c2cccc(NCCNC[C@H](O)c3cccc(Cl)c3)c2)c1 [solabegron zwitterion Form I],crystal form resulting from slurry conditioning,"[2]; starting with Form I alone or a mixture of Forms I and II, IPA/H2O with different ratio (FIG. 10)",Solabegron zwitterion Form II resulted from all tested conditions
"O=C(O)c1cccc(-c2cccc(NCCNC[C@H](O)c3cccc(Cl)c3)c2)c1 [solabegron, 3′-[(2-{[(2R)-2-(3-chlorophenyl)-2-hydroxyethyl]amino}ethyl)amino]biphenyl-3-carboxylic acid]",safety and tolerability; adverse events as compared to placebo,[3],"safe, well tolerated, and does not demonstrate significant differences in adverse events as compared to placebo"
same,symptoms of OAB,[3],significantly reduced the symptoms of OAB
